Laboratory results published in US20040138272A1, “1,4-Substituted cyclohexane derivatives” (priority 2002, published 2004).
“Also recorded” adds a separate entry of the source.

How the values were obtained:
ROCK II = molecular target: T1, ROCK II (Rattus norvegicus, UniProt Q62868); assay: ROCK II kinase assay with [γ-32P] ATP and myelin basic protein substrate (FIG. 3); assay type: biochemical; settings: 100 μM ATP, 30 min at 30° C.
T1 construct: purchased Upstate (Lake Placid, N.Y.)
Text: The ability of compounds to inhibit ROK activity may be tested in a cell-free assay system using recombinant ROK, radiaoactive ATP, and Myelin basic Protein (MBP). MBP is a highly phosphorylated protein, is inexpensive to buy in purified form, is phosphorylated by ROK, and is used as the assay substrate for phosphorylation. Recombinant ROK has been prepared from a number of sources. Overexpression in mammalian cells provides a convenient, easily renewed source of ROK activity. Measurement of Rho-associated kinase (ROK) activity is important to determine the potency of novel inhibitors. MBP is a substrate for ROK and a number of other protein kinases, making it useful both to quantitate ROK activity and to indicate the potency and specificity of novel inhibitors for ROK. […]
ROCK II was assayed in 20 mM MOPS, pH 7.2, 25 mM β-glycerophosphate, 5 mM EGTA, 1 mM sodium orthovanadate, 1 mM dithiothreitol with dephosphorylated myelin basic protein (MBP, 0.2 mg/ml) as substrate with or without BA-1016 or BA-1017. […] Assays were initiated by adding Mg^2+/ATP and terminated by spotting 40 μl of each reaction onto phosphocellulose paper (P81 paper, Whatman), followed by washes in 0.75% phosphoric acid to remove ATP and then dried, put in scintillation cocktail and counted to measure ^32P incorporation. Radioactivity is measured using a scintillation counter. […]

[1] = system: PC12 cells on MAG substrates; assay: Bioassay of PC12 neurite growth on growth inhibitory myelin-associated glycoprotein (MAG) substrates; assay type: cell-based
Protocol: PC-12 cells (ATCC CRL-1721) typically extend neurites in response to NGF, but when plated on inhibitory substrates, this outgrowth is inhibited and the cells remain round. We tested the ability of the new compound to grow neurites when plated on inhibitory substrates.
We used PC12 cells obtained from the American Type Culture Collection. PC12 cells were grown in Dulbecco's modified eagle's medium (DMEM) with 10% horse serum and 5% fetal bovine serum. To test compounds for the ability to overcome growth inhibition, PC12 cells were collected by detaching with trypsin-EDTA (0.05%), then resuspended in DMEM, 1% FBS, and 50 ng/ml nerve growth factor before plating on MAG substrates. MAG used for substrates was purified from myelin after extraction in 1% octylglucoside and separation by ion exchange chromatography (McKerracher et al. 1994, Neuron 13:805-811). Test substrates were prepared as uniform substrates in 96-well plates by drying overnight in the laminar flow hood (Nalge Nunc, Naperville, Ill.). Plates were precoated with polylysine (100 μg/ml) for 3 hours at 37° C., then washed and dried approx. 1 hour. MAG was prepared as a substrate by drying down 8 μg of protein overnight. After plating on the MAG substrate, the cells were grown at 37 C. for two days in the presence or absence of test compound (BA1003, BA1016, BA1017) to allow neurite growth. Polylysine substrates were used as a positive control. Quantitative analysis of neurite outgrowth was with the aid of Northern Eclipse software (Empix Imaging, Mississauga, Ontario). Data analysis and statistics were with Microsoft Excel.
Referring to FIG. 4 there is shown a graph illustrative of experiments performed in triplicate testing the ability of BA-1003, BA-1016 and BA-1017 to overcome growth inhibition by MAG. PC12 cells were plated on MAG substrates alone (MAG) or MAG substrates in the presence of 0.31 uM, 3.1 um or 31 um concentrations of the test compound. The numbers of neurons that grew neurites were scored, and are shown as the percentage of neurite growth.

[2] = system: retinal ganglion cell axons; assay: Axon regeneration after optic nerve crush, intravitreal injection; assay type: in vivo, rat; settings: adult rats, two weeks after crush
Protocol: To examine the ability of BA-1016 to promote axon regeneration in vivo, the regeneration of retinal ganglion cell axons was examined in the optic nerve after intravitrial injection of BA-1016. In these experiments, BA-1016 was injected at in the vitreous of rats immediately after optic nerve crush that transects all of the retinal ganglion cell (RGC) axons (Lehmann et al, IBID). Two weeks later the animals cholera toxin B subunit was injected in the eye to anterogradelty label the regenerating RGC axons. The next day the animals were killed perfused with saline, and the optic nerves removed for sectioning. Longitudinal sections of the optic nerve were reacted for anti-cholera toxin immunoreactivity to observe the anterogradely labeled fibers.
Rats were anesthetized with isoflorane (2.4%) and the head shaved. […] Retinal ganglion cell axons were labeled by CTB were detected by immunohistochemistry for CTB using a goat anti-choleragenoid (List Biological Labs.), a biotinylated rabbit anti-goat (Vector Labs., Burlingame, Calif.) and DTAF-conjugated streptavidin (Jackson Labs., West Grove, Pa.) as described previously (Lehmann et al IBID)

T1 sequence (Q62868 11-550 limits assumed): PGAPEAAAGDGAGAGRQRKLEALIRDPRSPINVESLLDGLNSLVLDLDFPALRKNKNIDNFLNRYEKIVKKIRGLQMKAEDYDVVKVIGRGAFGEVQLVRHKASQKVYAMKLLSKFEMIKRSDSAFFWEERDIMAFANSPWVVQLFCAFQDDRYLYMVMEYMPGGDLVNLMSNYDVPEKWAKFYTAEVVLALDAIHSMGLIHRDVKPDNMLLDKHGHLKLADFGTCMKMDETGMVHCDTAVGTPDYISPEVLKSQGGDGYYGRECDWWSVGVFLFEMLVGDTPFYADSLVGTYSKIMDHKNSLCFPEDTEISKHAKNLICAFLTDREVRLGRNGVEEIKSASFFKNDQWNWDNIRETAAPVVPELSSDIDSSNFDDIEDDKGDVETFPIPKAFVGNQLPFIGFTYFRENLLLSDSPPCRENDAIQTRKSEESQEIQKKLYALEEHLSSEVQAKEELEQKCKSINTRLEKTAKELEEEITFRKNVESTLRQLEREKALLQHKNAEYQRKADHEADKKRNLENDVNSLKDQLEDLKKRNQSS

**Q.** What does the source list for “(R)-trans-4-(But-3′-en-1′-amino)-N-(4″-pyridyl)cyclohexane Carboxamide Dihydrochloride [BA-1016]”?
**A.** inhibition of ROCKII activity (FIG. 3) (ROCK II): inhibition of ROCKII activity; neurite outgrowth on MAG substrates at the lowest concentration tested ([1]; PC12 cells, 0.31 uM): better neurite outgrowth; neurite outgrowth on inhibitory MAG substrates (FIG. 4) ([1]; PC12 cells, 0.31, 3.1 or 31 uM, Dihydrochloride): can promote neurite outgrowth; also recorded: able to overcome growth inhibition by MAG; distances of axon growth [2]: exceeded 500 um; axon regeneration after optic nerve injury (FIG. 5) ([2]; Dihydrochloride): can promote axon regeneration; also recorded: RGC axons were observed
